Our source for the Ki values is patent publication US8952157B2, “Apoptosis-inducing agents for the treatment of cancer and immune and autoimmune diseases” (AbbVie Inc., priority 2008, dated 2015).

For the experiment, the target named is GST-Bcl-2 (Homo sapiens (Human), UniProt P10415). In words: Time Resolved-Fluorescence Resonance Energy Transfer (TR-FRET) Bcl-2 binding assay. As to conditions: GST-Bcl-2 1 nM, F-Bak peptide probe 100 nM, Tb-anti-GST antibody 1 nM; Ki by Wang's equation. The method, then: Determination of the utility of compounds having Formula (I) as binders to and inhibitors of anti-apoptotic Bcl-2 proteins was performed using the Time Resolved-Fluorescence Resonance Energy Transfer (TR-FRET) Assay. Tb-anti-GST antibody was purchased from Invitrogen (Catalog No. PV4216).
GST-Bcl-2, sequence (P10415 whole entry): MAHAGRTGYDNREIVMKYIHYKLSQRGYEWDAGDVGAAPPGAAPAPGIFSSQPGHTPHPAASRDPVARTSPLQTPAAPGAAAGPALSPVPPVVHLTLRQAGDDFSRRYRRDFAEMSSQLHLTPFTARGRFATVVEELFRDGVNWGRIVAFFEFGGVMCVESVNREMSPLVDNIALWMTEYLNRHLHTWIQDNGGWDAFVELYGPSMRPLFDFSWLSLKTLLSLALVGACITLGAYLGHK
Representative compounds were serially diluted in dimethyl sulfoxide (DMSO) starting at 50 μM (2× starting concentration; 10% DMSO) and 10 μL were transferred into a 384-well plate. The samples are then mixed on a shaker for 1 minute and incubated for an additional 3 hours at room temperature. For each assay, the probe/antibody and protein/probe/antibody were included on each assay plate as negative and positive controls, respectively. Fluorescence was measured on the Envision (Perkin Elmer) using a 340/35 nm excitation filter and 520/525 (F-Bak peptide) and 495/510 nm (Tb-labeled anti-Histidine antibody) emission filters.
The samples were then mixed on a shaker for 1 minute and incubated for an additional 3 hours at room temperature. For each assay, the probe/antibody and protein/probe/antibody were included on each assay plate as negative and positive controls, respectively. Fluorescence was measured on the Envision (Perkin Elmer) using a 340/35 nm excitation filter and 520/525 (F-Bak peptide) and 495/510 nm (Tb-labeled anti-Histidine antibody) emission filters.
The inhibition constant (Ki) is the dissociation constant of an enzyme-inhibitor complex or a protein/small molecule complex, wherein the small molecule is inhibiting binding of one protein to another protein. So a large Ki value indicates a low binding affinity and a small Ki value indicates a high binding affinity.
(TR-FRET usually uses a lanthanide donor and a delayed reading to cut background.)

Bounds are passed on as bounds.

Consider `CN(C)CCCc1c[nH]c2cccc(Oc3cc(N4CCN(CC5=C(c6ccc(Cl)cc6)CC(C)(C)CC5)CC4)ccc3C(=O)NS(=O)(=O)c3ccc(NN4CCN(C)CC4)c([N+](=O)[O-])c3)c12` [Example 340, 4-(4-{[2-(4-chlorophenyl)-4,4-dimethylcyclohex-1-en-1-yl]methyl}piperazin-1-yl)-2-({3-[3-(dimethylamino)propyl]-1H-indol-4-yl}oxy)-N-({4-[(4-methylpiperazin-1-yl)amino]-3-nitrophenyl}sulfonyl)benzamide], for which the Ki worked out at 0.385 nM.
Then `CC1(C)CCC(CN2CCN(c3ccc(C(=O)NS(=O)(=O)c4cnc(OCC5(F)CCN(C(CF)CF)CC5)c(C(F)(F)F)c4)c(Oc4cnc(N)c(Cl)c4)c3)CC2)=C(c2ccc(Cl)cc2)C1` [Example 405, 2-[(6-amino-5-chloropyridin-3-yl)oxy]-4-(4-{[2-(4-chlorophenyl)-4,4-dimethylcyclohex-1-en-1-yl]methyl}piperazin-1-yl)-N-{[6-({4-fluoro-1-[2-fluoro-1-(fluoromethyl)ethyl]piperidin-4-yl}methoxy)-5-(trifluoromethyl)pyridin-3-yl]sulfonyl}benzamide], with 0.354 nM.
For `CC1(C)CCC(CN2CCN(c3ccc(C(=O)NS(=O)(=O)c4ccc(NCC5CCOCC5)c([N+](=O)[O-])c4)c(Oc4ccc(NC(=O)OC(C)(C)C)nc4)c3)CC2)=C(c2ccc(Cl)cc2)C1` [Example 270, tert-butyl 5-(5-(4-{[2-(4-chlorophenyl)-4,4-dimethylcyclohex-1-en-1-yl]methyl}piperazin-1-yl)-2-{[({3-nitro-4-[(tetrahydro-2H-pyran-4-ylmethyl)amino]phenyl}sulfonyl)amino]carbonyl}phenoxy)pyridin-2-ylcarbamate] the value was greater than 1200 nM.
For `CC1(C)CCC(CN2CCN(c3ccc(C(=O)NS(=O)(=O)c4ccc(OCC5(F)CCOCC5)c(Cl)c4)c(Oc4cnc(N)c(Cl)c4)c3)CC2)=C(c2ccc(Cl)cc2)C1` [Example 404, 2-[(6-amino-5-chloropyridin-3-yl)oxy]-N-({3-chloro-4-[(4-fluorotetrahydro-2H-pyran-4-yl)methoxy]phenyl}sulfonyl)-4-(4-{[2-(4-chlorophenyl)-4,4-dimethylcyclohex-1-en-1-yl]methyl}piperazin-1-yl)benzamide] the value was 0.069 nM; for `CC(c1ccccc1-c1ccc(Cl)cc1)N1CCN(c2ccc(C(=O)NS(=O)(=O)c3ccc(NC4CCN(C)CC4)c([N+](=O)[O-])c3)c(Oc3ccccc3Cl)c2)CC1` (stereo not shown) [Example 206, 4-{4-[1-(4′-chloro-1,1′-biphenyl-2-yl)ethyl]piperazin-1-yl}-2-(2-chlorophenoxy)-N-({4-[(1-methylpiperidin-4-yl)amino]-3-nitrophenyl}sulfonyl)benzamide], 0.037 nM; for `CC1(C)CCC(CN2CCN(c3ccc(C(=O)NS(=O)(=O)c4ccc(NCC5CCOC5)c([N+](=O)[O-])c4)c(Oc4cc5cc[nH]c5cc4F)c3)CC2)=C(c2ccc(Cl)cc2)C1` (stereo not shown) [Example 332, 4-(4-{[2-(4-chlorophenyl)-4,4-dimethylcyclohex-1-en-1-yl]methyl}piperazin-1-yl)-2-[(6-fluoro-1H-indol-5-yl)oxy]-N-({3-nitro-4-[(tetrahydrofuran-3-ylmethyl)amino]phenyl}sulfonyl)benzamide], 0.034 nM.
`CC1(C)CCC(CN2CCN(c3ccc(C(=O)NS(=O)(=O)c4cnc(OCC5(F)CCOCC5)c(Cl)c4)c(Oc4cnc(N)c(Cl)c4)c3)CC2)=C(c2ccc(Cl)cc2)C1` [Example 349, 2-[(6-amino-5-chloropyridin-3-yl)oxy]-N-({5-chloro-6-[(4-fluorotetrahydro-2H-pyran-4-yl)methoxy]pyridin-3-yl}sulfonyl)-4-(4-{[2-(4-chlorophenyl)-4,4-dimethylcyclohex-1-en-1-yl]methyl}piperazin-1-yl)benzamide]: the Ki amounted to 0.019 nM.

As usually defined, the Ki is a measure of affinity in units of concentration, obtained from inhibition or displacement.
